This is an account of results in EP4644389A1, “PRMT5-MTA INHIBITOR” (Suzhou Puhe Biopharma Co., Ltd., priority 2022, dated 2024).

In series [1] the test system is HCT116-MTAPwt. Put plainly: 2D anti-proliferation assay (CTG luminescence), wild-type HCT116 cells. The series is classed as cell-based. The following applies: Homo sapiens, HCT-116, 7-10 days incubation. How it is done: By testing the activity of both of them, the inhibitory effect and selectivity of the molecules of the present invention for PRMT5 at the cellular level were shown.
(§1) HCT116 wild-type and MTAP-deficient cells were cultured in MCCOYS 5A medium containing 10% FBS and 1% penicillin-streptomycin and incubated in a 37°C, 5% CO2 incubator. A 40 µL cell suspension was added to each well of a 384-well microplate. Using Echo, 40 nL of the compound at different concentrations were added to each well, followed by incubation in a 37°C, 5% CO2 incubator for 7-10 days. 40 µL of CTG solution (Promega, Cat No. G7573) was added to each well and incubated away from light in a 37°C, 5% CO2 incubator for 30 minutes. Luminescence was measured using an Envision multimode plate reader (Perkin Elmer, Catalog No. Envision 2104). The luminescence signal was proportional to the ATP content in the system, and the ATP content directly reflected the number of viable cells in the system.
ICso value calculation: [formula] • X: Log value of compound concentration • Y: Inhibition rate (%) Table 1: 2D Anti-proliferation Effects of Compounds on HTC116-MTAP del and Wild-type Colorectal Cancer HCT-116 Cell Lines.

Series [2] has as its system HCT116-MTAPdel. As to the kind of experiment: 2D anti-proliferation assay (CTG luminescence), MTAP-deficient HCT116 cells. It counts as cell-based. The following applies: for IC50: Homo sapiens, HCT-116, HCT116 MTAP-deficient cells, 7-10 days incubation, CTG, read-out: HCT116-MTAPdel/IC50/nM; for HCT116 WT/MTAPdel Selectivity: ratio of IC50 HCT116 WT / MTAPdel. How it is done: as §1

Series [3] concerns Caco-2 monolayer cells. As to the kind of experiment: Caco-2 membrane permeability assay. The following applies: Caco-2, Efflux Ratio = Papp (B-A)/Papp (A-B). The series is classed as in vitro ADME. How it is done:
(§2) Evaluation of membrane permeability of the molecules of the present invention. Samples will be analyzed using LC-MS to estimate the apparent permeability coefficient (Papp) of the compound in Caco-2 monolayer cells, wherein the pH of the apical chamber is 6.5, and the pH of the basolateral chamber is 7.4. The P-gp efflux transporter, BCRP, and MRP2 inhibitors (50 µM quinidine, 30 µM benzbromarone, and 20 µM sulfasalazine) can block the active efflux transport of the compound. The data will be used for calculating apparent permeability (Papp). Papp = (VA×⌊drug⌋acceptor)/(Area×Time×⌊drug⌋initial,donor) [formula] wherein, VA is the volume of the receptor well (unit: mL), area is the membrane surface area (for Transwell-96 well permeable support, it is 0.143 cm^2), and time is the total transport time (unit: seconds). Efflux Ratio = Papp (B−A)/Papp (A−B) [formula]

Series [4] is described as follows: Caco-2 membrane permeability assay. The following applies: human; for efflux ratio: Caco-2, Efflux Ratio = Papp (B-A)/Papp (A-B); for Papp A→B / Papp B→A: Caco-2, apical pH 6.5, basolateral pH 7.4. It counts as in vitro ADME. How it is done:
as §2

Series [5] can be described thus: Liver microsomal stability, human. The series is classed as in vitro ADME. The following applies: human liver microsomes 0.5 mg/mL, compound 1 µM, NADPH 1 mM, 60 minutes.
Experimental: Microsomal stability experiment of the compound. The details are as follows: A microsomal stability test was conducted on the compounds of the present invention. The test compounds were co-incubated with liver microsomes from different species, with or without the addition of NADPH. In the test system, the final concentration of the test compound was 1 µM, the final concentration of NADPH was 1 mM, and the final concentration of liver microsomes was 0.5 mg/mL.
Series [6] can be described thus: Pharmacokinetic evaluation in mice (IV and oral). The following applies: female, CD1, mouse, in vivo. How it is done: CD1 female mice were used as test animals, and the compounds were administered orally or intravenously (oral dose of 10 mg/kg; intravenous dose of 2 mg/kg).
Experiment protocol: Three mice per group for oral administration, and three mice per group for intravenous administration. Oral: Plasma samples were collected before administration (0 h) and at 0.25, 0.5, 1, 2, 4, 8, and 24 hours post-administration; Intravenous: Plasma samples were collected before administration (0 h) and at 0.083, 0.25, 0.5, 1, 2, 4, 8, and 24 hours post-administration. The plasma drug concentrations in mice after oral and intravenous administration were determined using LC/MS/MS, and the collected data were analyzed using AB Sciex QTRAP 6500 software.

Series [7] deals with MDR1 (P-gp). Put plainly: MDCK-MDR1 membrane permeability assay. The following applies: dog; MDCK-MDR1, 1 µM, pH 7.4, 2 hours. It counts as in vitro ADME. How it is done:
(§3) Evaluation of membrane permeability of the molecules of the present invention to predict their permeability for the brain.
(§4) Specifically: 1. Pre-incubate MDCK-MDR1 cells at a density of 1.56×10^6 cells/mL, inoculate them in a 96-well plate to culture at 37°C for 7 days; 2. Remove the MDCKII-MDR1 plate from the incubator, wash twice with pre-warmed HBSS (10 mM HEPES, pH 7.4), and incubate at 37°C for 30 minutes; 3. Dilute the stock solution of the test compound with DMSO to obtain a 0.2 mM solution, then further dilute it with HBSS (10 mM HEPES, pH 7.4) to prepare a 1 µM working solution. For the blank control group, dilute with DMSO to obtain a 0.2 mM solution, then further dilute with HBSS (10 mM HEPES, pH 7.4) to obtain a 1 µM working solution. The final concentration of DMSO in the culture system is 0.5%; 4. Measure the transport rate of the drug from the apical side to the basolateral side. Add 125 µL of the 1 µM test compound solution into the Transwell insert (apical chamber) and immediately transfer 50 µL of the sample (D0 sample) from the apical chamber to a new 96-well plate. Fill the receptor plate wells (basolateral chamber) with 235 µL HBSS (10 mM HEPES, pH 7.4) and incubate at 37°C for 2 hours; 5. At the end of the incubation, transfer 50 µL of the sample from both the donor side and the acceptor side into the wells of a new 96-well plate, then add four volumes of cold acetonitrile containing the appropriate internal standard (IS). Before the LC-MS/MS analysis, take 100 µL of the supernatant and mix it with an appropriate volume of ultrapure water. Papp = (VA×⌊drug⌋acceptor)/(Area×Time×⌊drug⌋initial,donor) [formula] wherein VA is the volume of the acceptor well (unit: mL), area is the membrane surface area (for Transwell-96 well permeable support, it is 0.143 cm^2), and time is the total transport time (in seconds). Efflux Ratio = Papp (B−A)/Papp (A−B) [formula]

Series [8] relates to MDCK-MDR1 cells. As to the kind of experiment: MDCK-MDR1 membrane permeability assay. It counts as in vitro ADME. The following applies: MDCK-MDR1, Efflux Ratio = Papp (B-A)/Papp (A-B). How it is done: as §3, §4
Series [9] deals with MDR1. As to the kind of experiment: MDCK-MDR1 membrane permeability assay. It counts as in vitro ADME. The following applies: dog, pH 7.4; MDCK-MDR1, Efflux Ratio = Papp (B-A)/Papp (A-B). How it is done:
as §3, §4

As to `Cc1c(CO)c(N)nc2cc(F)c(C(=O)N(C)C3COc4cc(C(F)(F)F)ccc43)cc12` (racemic) [Compound A9], the IC50 in series [1] was 4700 nM. Moreover, in series [2], the IC50 was found to be 27 nM and the “HCT116 WT/MTAPdel Selectivity” value is reported as 174. Further, the Efflux in [3] is given as less than 2. For the same molecule, in series [4], the efflux ratio stood at 1.2, the Papp A→B turned out to be 5.1 ×10⁻⁶ cm/s and the Papp B→A is 5.9 ×10⁻⁶ cm/s. This molecule came in with a CLint scaled at 1 µM in series [5] of 3.6 mL/min/kg.

In [1], `Cc1c(CO)c(N)nc2cc(F)c(C(=O)N(C)[C@@H]3COc4cc(C(F)(F)F)ccc43)cc12` [Compound A9a] yielded an IC50 of 2470 nM. Further, in series [6], the bioavailability worked out at 81%. In series [6] (iv, 2 mg/kg), this molecule gave an AUC(0-t) of 19500 ng·h/mL, a C0 of 4010 ng/mL, a clearance of 1.7 mL/min/kg and a half-life of 3.3 h. In addition, in series [6] (po, 10 mg/kg), the AUC(0-t) was determined as 74200 ng·h/mL, the Cmax turned out to be 5340 ng/mL, the Tmax was 2 h and the half-life was 5.9 h. In series [7], this molecule registered a Papp A→B at 2 h, 1 µM of 5.1 ×10⁻⁶ cm/s and a Papp B→A at 2 h, 1 µM of 5.9 ×10⁻⁶ cm/s. Also, the Efflux in [8] was 1.2. In addition, the efflux ratio at 2 h, 1 µM in series [9] came to 1.2. In series [2], the IC50 is 16 nM and the “HCT116 WT/MTAPdel Selectivity” value is 130. Moreover, the Efflux in series [3] is listed as less than 2. In [4], the efflux ratio came out at 1.6, the Papp A→B came to 6.9 ×10⁻⁶ cm/s and the basolateral-to-apical permeability (Papp B→A) was 10.8 ×10⁻⁶ cm/s. In series [5], this molecule gave a CLint scaled at 1 µM of 8.9 mL/min/kg.
